Test results reported in PMC7582905, “Effect of Disulfide Cyclization of Ultrashort Cationic Lipopeptides on Antimicrobial Activity and Cytotoxicity” (International Journal of Molecular Sciences, 2020).

Legend:
[1] = test system: Candida albicans ATCC 10231; experiment: Transmission electron microscopy (TEM); assay type: cell-based; conditions: 2 × MIC, 5.0 × 10^6 CFU/mL, 1 h at room temperature
Method: TEM was used to examine ultrastructural changes in the Candida albicans ATCC 10231 cells treated with selected lipopeptides (L2, C2, L4, C4) and melittin (positive control). Fungal cells (Candida albicans ATCC 10231) were incubated in RMPI-1640 overnight. The cells were centrifuged (3500 rpm, 7 min) and resuspended in fresh RMPI-1640 medium to obtain dense cell suspension (5.0 × 10^6 CFU/mL). The high cell-density culture was prepared to facilitate TEM observations. Peptides’ concentrations were 2 × MIC. Samples were incubated for 1 h at room temperature. Importantly, MIC of selected peptides (L2, C2, L4, C4, and melittin) were also determined with dense inoculum of yeasts (5.0 × 10^6 CFU/mL). After the treatment, the fungal cells were centrifuged (3500× rpm, 10 min) and washed twice with PBS. Fungal cells were fixed with 2.5% glutaraldehyde buffered at pH 6.5 with 0.1 M sodium cacodylate (Polysciences, Warrington, PA, USA) for 6 h at room temperature. Postfixation was performed with a 1% osmium tetroxide (Polysciences, Warrington, PA, USA) solution for 2 h at 4 °C. The cells were then centrifuged and resuspended in 0.1 M cacodylate buffer (pH 6.5). After re-centrifugation, cells were dehydrated with ethanol. Yeasts were embedded in Epon 812 resin (Sigma-Aldrich) at room temperature. An ultramicrotome Leica UC7 was used to prepare ultrathin sections (55 nm). […]

C. albicans (ATCC 10231) = conditions: ref [5] Makovitzki et al.; cited from earlier work
Description: When a peptide is cyclic its antifungal activity is usually remarkably higher than that of the antibacterial activity as compared that of the linear parent molecules. The differences in antifungal and antibacterial (Gram-negative) activities between the cyclic and linear lipopeptides are statistically significant (p < 0.05). Makovitzki et al. have reported a high antimicrobial activity of C16-KKkK-NH2 (originally written as C16-KKKK-NH2; k/K—D-enantiomer) against P. aeruginosa, E. coli, and S. aureus (3–6.25 μM; approx. 2.3–4.8 μg/mL) being similar to that of lipopeptide 3. However, different ...

Molecule | ultrastructural changes in TEM micrographs [1] | MIC C. albicans (ATCC 10231) (C. albicans (ATCC 10231)) [µM]
CC[C@H](C)[C@H](NC(=O)CN)C(=O)NCC(=O)N[C@@H](C)C(=O)N[C@H](C(=O)N[C@@H](CC(C)C)C(=O)N[C@@H](CCCCN)C(=O)N[C@H](C(=O)N[C@@H](CC(C)C)C(=O)N[C@H](C(=O)N[C@H](C(=O)NCC(=O)N[C@@H](CC(C)C)C(=O)N1CCC[C@H]1C(=O)N[C@@H](C)C(=O)N[C@@H](CC(C)C)C(=O)N[C@H](C(=O)N[C@@H](CO)C(=O)N[C@@H](Cc1c[nH]c2ccccc12)C(=O)N[C@H](C(=O)N[C@@H](CCCCN)C(=O)N[C@@H](CCCNC(=N)N)C(=O)N[C@@H](CCCCN)C(=O)N[C@@H](CCCNC(=N)N)C(=O)N[C@@H](CCC(N)=O)C(=O)N[C@@H](CCC(N)=O)C(N)=O)[C@@H](C)CC)[C@@H](C)CC)[C@@H](C)O)[C@@H](C)O)C(C)C)C(C)C [melittin, Melittin, reference compound] | numerous vesicles are visible inside and outside the cell | –
C16-KKkK-NH2 | – | 25
